Data set [1] is described as follows: solubility by nephelometry. The class given is physicochemical. As to conditions: PBS buffer with 1% DMSO; maximum solubility by nephelometry. How it is done: Prior to use, the pre-coated PAMPA plate system was warmed to rt for 30 min and 300 μL of 200 μM solution of tested compound in 2% DMSO in PBS were added to the wells in the receiver (donor) plate.
Then, 200 μL of PBS were added to the wells in the filter (acceptor) plate. The filter plate was placed on the receiver plate by slowly lowering the pre-coated PAMPA plate until it sits on the receiver plate. The assembly was incubated at rt for 5 h, and then buffer samples were collected carefully from each plate. […]
CD(t) = compound concentration (μM) in donor well at time t, and Ceq = […]
Solubility. […] The solutions were i ncubated for 2 h at 37 °C and read in a NEPHELOstar Plus instrument (BMG LABTECH). […]
Fluorescence per well was measured using a fluorescence plate reader (Tecan Infinite M1000 pro) and percentage of inhibition was calculated. hERG ion channel inhibition. […] Cell s were maintained at 37 °C in a 5% CO2 atmosphere for 24 h and at 30 °C in a 5% CO 2 atmosphere for 48 h. hERG activity was measured by using the FluxorTM Potassium Ion Chanel Assay Kit (Thermo Fisher F10016). […] After this time, 5 µL of stimulus buffer was added to each well and fluorescence was read (λ ex = 490 nm, λem = 525 nm) every second after the establishment of a baseline line using an imaging plate reader system (FDSS7000EX, Hamamatsu®). […]

Data set [2] addresses T1, human serum albumin (HSA) (Homo sapiens, UniProt P02768).
T1 construct: purchased Sovicell TMP-0210-2096
The data set is described as follows: HSA binding assay (TRANSIL XL). Format: in vitro ADME. To be noted: for HSA binding (%): at a concentration of 5 μM. Here is the method:
HSA binding assay. The assessment of compounds binding to HSA was performed by incubating a fixed concentration of the compound with different concentrations of immobilized HSA, using the TRANSILXL HSA Binding Kit (TMP-0210- 2096, Sovicell). An 8-well unit of the TRANSIL assay plate was used for each compound : six wells contain increasing concentrations of HSA immobilized on silica beads suspended in PBS at pH 7.4, and two wells contain buffer only and serve as references to account for nonspecific binding. The TRANSIL assay plate was thawed for 3 h at rt and centrifuged at 750g for 5 s. Then, 15 μ L of an 80 μ M stock solution of the compound in PBS (for a final concentration of 5 μ M) were added to each well of the 8-well unit, and the plate was incubated on a plate shaker at 1000 rpm for 12 min at rt. After this time, the plate was centrifuged at 750gfor 10 min, and 50 μL of the supernatants were transferred for analytical quantification by HPLC-MS using selected ion monitoring (SIM). The binding percentage was calculated from the remaining free compound concentration in the supernatant of each well, using the spreadsheet and algorithms supplied with the kit.
Stability in mouse serum. Stability for selected compounds and reference compound enalapril was assayed by adding 625 μL of a 250 μM solution of test compound in PBS pH 7.4 to 1.875 mL of mouse serum (Europa Bioproducts, EQSM-0100) pre-warmed a t 37 °C. Next, solutions were incubated at 37 °C for 4 h, taking aliquots of 250 μL at t = 0, 1, 2, 3, and 4 h. Each aliquot was quenched in 375 μL of cold ACN, vortexed, incubated for 10 min in ice and centrifuged at 39000g for 10 min. Supernatants were then analyzed by HPLC-MS using SIM mode, and quantification was estimated by using the peak area integration normalized with an internal standard.
Stability assay in mouse liver homogenate. Stability of test compounds and reference compound propranolol was determined by incubation in liver homogenates following previously reported procedure. […]

A further data set addresses T2, CYP2C19 (Homo sapiens, UniProt P33261).
T2 construct: host or cells: insect cell microsomes
The data set is described as follows: cytochrome inhibition, fluorescence assay, CYP2C19. Format: in vitro ADME. How it is done:
Cytochrome inhibition. The objective of this study was to screen the potential of test […]
performed using recombinant isoforms CYP1A2, CYP2C9, CYP2C19, CYP2D6, and CYP3A4, and probe substrates with fluorescent detection.
Assays were conducted in a 200 µL volume in 96-well microtiter plates (COSTAR 3915).
Addition of cofactor-buffer mixture (KH2PO4 buffer, 1.3 mM NADP, 3.3 mM MgCl2, 3.3 mM glucose -6- phosphate, and 0.4 U/mL glucose -6- phosphate dehydrogenase), supersomes control, standard inhibitors (furafyline, tranylzypromine, ketoconazole, sulfaphenazole, and quinidine from Sigma Aldrich) and test compound to the plate was carried out by a liquid handling station (Zephyr Caliper). The plate was then pre-incubated at 37 °C for 5 min, and the reaction was initiated by the addition of the pr e - warmed enzyme/substrate (E/S) mix. […]
Fluorescence per well was measured using a fluorescence plate reader (Tecan Infinite M1000 pro) and percentage of inhibition was calculated. hERG ion channel inhibition. […]

In brackets after ≈: the same amount, converted by molar mass.

Broadly, the solubility is the dissolved amount per volume that the medium holds. Read a low solubility as little dissolved substance. The term IC50 denotes the concentration that gives 50% inhibition. Read a low IC50 as higher potency. Broadly, the Kd is the equilibrium constant for the complex coming apart.

T1 sequence (P02768 25-609): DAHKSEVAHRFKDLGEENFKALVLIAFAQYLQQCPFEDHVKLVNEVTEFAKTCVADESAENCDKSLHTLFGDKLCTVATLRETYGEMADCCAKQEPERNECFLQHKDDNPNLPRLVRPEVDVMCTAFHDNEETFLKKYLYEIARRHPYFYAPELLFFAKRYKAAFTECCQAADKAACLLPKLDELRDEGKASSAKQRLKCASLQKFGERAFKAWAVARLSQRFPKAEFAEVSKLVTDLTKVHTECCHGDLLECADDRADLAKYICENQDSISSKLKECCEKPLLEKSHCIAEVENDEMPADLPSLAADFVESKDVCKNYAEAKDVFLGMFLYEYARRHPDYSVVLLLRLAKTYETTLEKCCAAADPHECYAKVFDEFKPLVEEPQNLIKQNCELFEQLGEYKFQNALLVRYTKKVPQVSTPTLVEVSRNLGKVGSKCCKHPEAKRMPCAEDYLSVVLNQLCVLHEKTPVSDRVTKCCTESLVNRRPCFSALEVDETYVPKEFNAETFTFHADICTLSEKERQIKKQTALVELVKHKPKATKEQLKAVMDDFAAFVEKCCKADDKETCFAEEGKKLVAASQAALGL
T2 sequence (P33261 whole entry): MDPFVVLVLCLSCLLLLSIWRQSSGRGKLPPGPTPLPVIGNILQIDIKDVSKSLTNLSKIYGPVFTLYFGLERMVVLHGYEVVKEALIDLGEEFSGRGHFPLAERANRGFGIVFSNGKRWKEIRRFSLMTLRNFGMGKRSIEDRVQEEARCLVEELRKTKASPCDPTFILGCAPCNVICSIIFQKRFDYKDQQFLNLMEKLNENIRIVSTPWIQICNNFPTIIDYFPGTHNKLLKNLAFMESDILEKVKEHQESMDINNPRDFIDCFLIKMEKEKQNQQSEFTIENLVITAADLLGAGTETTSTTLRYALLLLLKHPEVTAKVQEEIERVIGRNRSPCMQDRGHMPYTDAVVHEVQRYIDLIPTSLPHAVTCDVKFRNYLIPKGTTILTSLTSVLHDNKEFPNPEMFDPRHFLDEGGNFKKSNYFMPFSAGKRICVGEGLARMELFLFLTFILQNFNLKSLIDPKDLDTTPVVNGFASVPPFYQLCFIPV

As to `O=Cc1ccc(-c2ccccc2OCF)cc1` [Compound 3, 2′-(Fluoromethoxy)[1,1′-biphenyl]-4-carbaldehyde], the solubility at 2 h in data set [1] is 15 µM (≈ 3.45 µg/mL). In data set [2], the “HSA binding (%)” value is on record as over 99%. On CYP2C19, this compound had an IC50 of 6.53 ± 1.12 µM.

`CS(=N)(=O)c1ccc(-c2ccccc2OCF)cc1` (stereo not shown) [Compound 26, 2-(Fluoromethoxy)-4′-(S-methanesulfonimidoyl)-1,1′-biphenyl]: in data set [1], the solubility at 2 h is 50 µM (≈ 14 µg/mL). Besides, the “HSA binding (%)” value in data set [2] was 79%. Moreover, the Kd in data set [2] (read-out: HSA dissociation constant Kd) stood at 156 µM. Further, the “CYP2C19 (%)” value at CYP2C19 (percentage of inhibition at 10 μM) came to 37 ± 2%.

Source of the values: PMC9511493, “2-(Fluoromethoxy)-4′-(S-methanesulfonimidoyl)-1,1′-biphenyl (UCM-1306), an Orally Bioavailable Positive Allosteric Modulator of the Human Dopamine D1 Receptor for Parkinson’s Disease” (Journal of Medicinal Chemistry, 2022).
